# Reference: paper PMC12086749, “Design, synthesis, and evaluation of peptide‐imidazo[1,2‐a]pyrazine bioconjugates as potential bivalent inhibitors of the VirB11 ATPase HP0525” (Journal of Peptide Science, 2021)
# Biological target: VirB11 ATPase HP0525 (Helicobacter pylori, UniProt Q7BK04)
# Experiment: in vitro ATPase colorimetric assay of HP0525
# Assay type: biochemical
# Conditions: for inhibition of HP0525 (in words): qualitative statement
# Protocol: The HP0525 protein was produced in the E. coli strain BL21 Star (DE3) (Invitrogen) as described previously.[39] The protein concentration was estimated spectroscopically using a NanoDrop (Thermo Scientific) and a calculated extinction coefficient at 280 nm, based on the amino acid composition. The ATPase activity of HP0525 was measured, with and without a specific amount of compound present, using an in vitro ATPase colorimetric assay kit (Innova Biosciences). The assay was performed in 96‐well ELISA microplates (Greiner Bio‐One), using a multipipette/robot.
# A volume of 49 μl of a substrate/buffer solution (200 mM tris(hydroxymethyl)aminomethane [TRIS], pH 7.5; 5 mM MgCl2; 250 μM ATP; and 10% DMSO) was added to each assigned well, followed by the addition of 1 μl of compound (at 0.5; 5 or 50 mM to achieve the final concentrations of 5; 50 and 500 μM in the reaction, respectively) in DMSO (or 1 μl DMSO to controls). The solutions were mixed carefully by pipetting. The reaction was started by the addition of 50 μl of 0.106 μM HP0525 to each well (except the negative control, see text below), and the reaction plate was directly transferred to 37°C for 30 min of incubation. The reaction was stopped by the addition of the gold mix according to the standard protocol of the kit. The absorbance at 620 nm was measured after 30 min at RT. For each compound, the percentage of absorbance relative to non‐inhibited HP0525 was calculated, after subtracting the absorbance value of the negative control. In the negative control, the protein was added after the gold mix, as described in the standard protocol of the kit, which when used as a blank corrects for all free Pi not produced by the enzyme during the 30 min incubation at 37°C. A known inhibitor of HP0525 (CHIR02)[26] was used as a control inhibitor. All measurements were made in duplicate.
# Each compound was screened on three separate plates, and each plate was read twice, and a mean was calculated for each concentration. The data were normalized by subtracting the negative control (0% active) and relating it to the positive control (100% active). The software GraphPad Prism 5 was used to generate two dose–response curves (Log [inhibitor] vs. normalized response [standard and variable slope]), and the IC50 values were calculated from each.
# Sequence of VirB11 ATPase HP0525 (Q7BK04 entry or part of it): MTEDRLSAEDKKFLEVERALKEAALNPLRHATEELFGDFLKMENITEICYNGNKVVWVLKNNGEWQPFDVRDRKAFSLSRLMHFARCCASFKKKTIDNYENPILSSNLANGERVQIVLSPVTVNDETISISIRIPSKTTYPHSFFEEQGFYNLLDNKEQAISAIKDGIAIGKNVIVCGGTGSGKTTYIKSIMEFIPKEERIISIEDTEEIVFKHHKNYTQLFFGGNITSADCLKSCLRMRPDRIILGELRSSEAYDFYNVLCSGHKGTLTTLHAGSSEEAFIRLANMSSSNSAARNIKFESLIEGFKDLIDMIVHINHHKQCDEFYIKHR
Compound,IC50 [µM],inhibition of HP0525 (in words)
C=CCOCCOC(=O)Nc1ccc(S(=O)(=O)Nc2nccn3cc(-c4ccc5ccccc5c4)nc23)cc1 [Compound 15],46,improved inhibition
O=C(CCN1C(=O)C=CC1=O)NCCOCCOC(=O)Nc1ccc(S(=O)(=O)Nc2nccn3cc(-c4ccc5ccccc5c4)nc23)cc1 [Compound 17],18,improved inhibition
NCCOCCOC(=O)Nc1ccc(S(=O)(=O)Nc2nccn3cc(-c4ccc5ccccc5c4)nc23)cc1 [Compound 27],137,poor inhibition
C#CCOCCOC(=O)Nc1ccc(S(=O)(=O)Nc2nccn3cc(-c4ccc5ccccc5c4)nc23)cc1 [Compound 16],61,improved inhibition
